Laboratory results as given in US20250257034A1, “INDOLE DERIVATIVES AS SEROTONERGIC AGENTS USEFUL FOR THE TREATMENT OF DISORDERS RELATED THERETO” (priority 2023, published 2025).

Key:
[1] = Human liver microsomes stability; assay type: in vitro ADME; details: for half-life at 2 μM / microsomal CLint at 2 μM: 2 μM compound; for microsomal CLint at 2 μM: read-out: CLint (μL/min/mg protein); for CLint scaled at 2 μM: read-out: Scaled-up CLint
Description: (§1) The objective of this study was to estimate in vitro metabolic stability of exemplary compounds of Formula (I) or a pharmaceutically acceptable salt, solvate, and/or prodrug thereof in pooled human, male rat, and male mouse liver microsomes. The concentrations of compounds in reaction systems were evaluated by LC-MS/MS for estimating the stability in pooled human, male rat, and male mouse liver microsomes. The in vitro intrinsic clearances of test compounds were determined as well.
(§2) A master solution in the “Incubation Plate” containing phosphate buffer, ultra-pure H2O, MgCl2 solution and liver microsomes was made according to Table 33. The mixture was pre-warmed at 37° C. water bath for 5 minutes.
(§3) 40 μL of 10 mM nicotinamide adenine dinucleotide phosphate (NADPH) solution was added to each well. The final concentration of NADPH was 1 mM. The negative control samples were prepared by replacing NADPH with 40 μL of ultra-pure H2O. Samples were prepared in duplicate. Negative controls were prepared in singlet.
(§4) The reaction was started with the addition of 4 μL of 200 μM exemplary test compounds of the disclosure or control compounds to each master solution to get the final concentration of 2 μM. This study was performed in duplicate.
(§5) Aliquots of 50 μL were taken from the reaction solution at 0, 15, 30, 45, and 60 minutes. The reaction solutions were stopped by the addition of 4 volumes of cold methanol with IS (100 nM alprazolam, 200 nM imipramine, 200 nM labet alol and 2 μM ketoprofen). Samples were centrifuged at 3,220 g for 40 minutes. Aliquot of 90 μL of the supernatant was mixed with 90 μL of ultra-pure H2O and then was used for LC-MS/MS analysis.
(§6) LC/MS analysis was performed for all samples from this study using a Shimadzu liquid chromatograph separation system equipped with degasser DGU-20A5R; solvent delivery unit LC-30AD; system controller SIL-30AC; column oven CTO-30A; CTC Analytics HTC PAL System. Mass spectrometric analysis was performed using a Triple Quad™ 5500 instrument.
(§7) All calculations were carried out using Microsoft Excel. Peak area ratios of test compound to internal standard (listed in the below table) were determined from extracted ion chromatograms.
(§8) All calculations were carried out using Microsoft Excel. Peak areas were determined from extracted ion chromatograms. The slope value, k, was determined by linear regression of the natural logarithm of the remaining percentage of the parent drug vs. incubation time curve.
(§9) The in vitro half-life (in vitro t1/2) was determined from the slope value:
(§10) Conversion of the in vitro t1/2(min) into the in vitro intrinsic clearance (in vitro CLint, in μL/min/mg proteins) was done using the following equation (mean of duplicate determinations): […]
(§11) A master solution in the “Incubation Plate” containing phosphate buffer, ultra-pure H2O, MgCl2 solution and liver microsomes was made according to Table 63. The mixture was pre-warmed at 37° C. water bath for 5 minutes.
(§12) 40 μL of 10 mM NADPH solution was added to each well. The final concentration of NADPH was 1 mM. The negative control samples were prepared by replacing NADPH with 40 μL of ultra-pure H2O. Samples were prepared in duplicate. Negative controls were prepared in singlet.
(§13) Conversion of the in vitro t1/2(min) into the in vitro intrinsic clearance (in vitro C Lt, in μL/min/mg proteins) was done using the following equation (mean of duplicate determinations): […]

[2] = Rat liver microsomes stability; assay type: in vitro ADME; details: for microsomal CLint at 2 μM / half-life at 2 μM / CLint scaled at 2 μM: male; for microsomal CLint at 2 μM: rat, read-out: CLint (μL/min/mg protein); for microsomal CLint at 2 μM / half-life at 2 μM: 2 μM compound; for CLint scaled at 2 μM: read-out: Scaled-up CLint
Description: as §1, §2, §3, §4, §5, §6, §7, §8, §9, §10, §11, §12, §13

[3] = target: 5-HT2B receptor (Homo sapiens, UniProt P41595); assay: Human 5-HT2B radioligand binding assay ([3H]-LSD); parameters: host or cells: cell membrane, dosed as 1 unit/well
Sequence of 5-HT2B receptor (P41595 whole entry): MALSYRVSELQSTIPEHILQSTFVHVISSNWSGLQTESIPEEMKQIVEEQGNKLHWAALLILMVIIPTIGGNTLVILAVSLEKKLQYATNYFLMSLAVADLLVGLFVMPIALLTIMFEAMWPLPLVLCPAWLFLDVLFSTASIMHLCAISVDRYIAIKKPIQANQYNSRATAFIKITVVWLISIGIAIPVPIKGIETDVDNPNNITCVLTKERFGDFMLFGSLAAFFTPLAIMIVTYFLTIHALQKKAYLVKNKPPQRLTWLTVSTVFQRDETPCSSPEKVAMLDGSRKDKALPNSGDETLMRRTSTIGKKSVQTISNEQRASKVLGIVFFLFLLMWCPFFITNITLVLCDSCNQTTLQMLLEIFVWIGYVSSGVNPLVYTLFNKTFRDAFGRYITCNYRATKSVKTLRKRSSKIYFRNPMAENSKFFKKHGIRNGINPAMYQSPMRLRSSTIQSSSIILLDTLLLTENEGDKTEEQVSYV
Description: The objective of this study was to evaluate the binding properties of test compounds on 5-HT2B.
1) The assay buffer was prepared following Table 25-below.
2) Eight doses of reference and test compounds starting from 10 mM stock solution as requested by 5-fold serial dilutions with 100% (v/v) DMSO.
3) UniFilter-96 GF/B plate was pretreated: • a. 50 μl/well of 0.5% (v/v) PEI to UniFilter-96 G F/B plates. The plates were sealed and incubated at 4° C. for 3 hrs. • b. After incubation, the plates were washed 3 times with ice-cold wash buffer (50 mM Tris, pH7.4).
4) Assay plate preparation: • a. Cell membrane was diluted with assay buffer and 330 μl/well added to 96 round deep well plates to reach a concentration of 1 unit/well. • b. Eight concentrations of reference or test compounds were prepared and 110 μl/well added to 96 round deep well plates. • c. [3H]-LSD was diluted with assay buffer to 5 nM (5×final concentration) and 110 μl/well was added to 96 round deep well plates.
5) The plate was centrifuged at 1000 rpm for 30 secs and then agitate at 600 rpm, R.T. for 5 min.
6) The plates were sealed and incubated at 37° C. for 90 min.
7) The incubation was stopped by vacuum filtration onto GF/B filter plates followed by 4 times washing with ice-cold wash buffer (50 mM Tris, pH7.4).
9) The filter plates were sealed and 40 μl/well of scintillation cocktail was added.
10) The plate was read using a Microbeta2 microplate counter.
(§14) For reference and test compounds, the results are expressed as % Inhibition, using the normalization equation: N=100-100x(U-C2)/(C1-C2), where U is the unknown value, Cl is the average of high controls, and C2 is the average of low controls. The IC50 is determined by fitting percentage of inhibition as a function of compound concentrations with Hill equation using XLfit.
1) The assay buffer was prepared following Table 54 below.
7) The incubation was stopped by vacuum filtration onto G F/B filter plates followed by 4 times washing with ice-cold wash buffer (50 mM Tris, pH7.4).
as §14, with “N=100−100×(U−C2)/(C1−C2),” for “N=100-100x(U-C2)/(C1-C2),”, “C1” for “Cl”

[4] = human liver microsomes, 0.5 mg/mL
[5] = human liver microsomes, With Cofactors, 0 min
[6] = human liver microsomes, With Cofactors, 30 min
[7] = human liver microsomes, With Cofactors, 60 min
[8] = human liver microsomes, Without Cofactors, 0 min
[9] = human liver microsomes, Without Cofactors, 30 min
[10] = human liver microsomes, Without Cofactors, 60 min
[11] = pooled liver microsomes, rat liver microsomes, 0.5 mg/mL
[12] = pooled liver microsomes, rat liver microsomes
[13] = rat liver microsomes, With Cofactors, 0 min
[14] = rat liver microsomes, With Cofactors, 30 min
[15] = rat liver microsomes, With Cofactors, 60 min
[16] = rat liver microsomes, Without Cofactors, 0 min
[17] = rat liver microsomes, Without Cofactors, 30 min
[18] = rat liver microsomes, Without Cofactors, 60 min

Structure (SMILES)	Predicted hepatic CL ([1]; human liver microsomes) [mL/min/kg]	half-life at 2 μM [1, 4] [min]	microsomal CLint at 2 μM [1, 4] [µL/min/mg]	Remaining Percentage (%) [1, 5] [%]	Remaining Percentage (%) [1, 6] [%]	Remaining Percentage (%) [1, 7] [%]	Remaining Percentage (%) [1, 8] [%]	Remaining Percentage (%) [1, 9] [%]	Remaining Percentage (%) [1, 10] [%]	CLint scaled at 2 μM ([1]; human liver microsomes) [mL/min/kg]	half-life at 2 μM [2, 11] [min]	CLint scaled at 2 μM [2, 12] [mL/min/kg]	microsomal CLint at 2 μM [2, 11] [µL/min/mg]	Predicted hepatic CL ([2]; rat liver microsomes) [mL/min/kg]	Remaining Percentage (%) [2, 13] [%]	Remaining Percentage (%) [2, 14] [%]	Remaining Percentage (%) [2, 15] [%]	Remaining Percentage (%) [2, 16] [%]	Remaining Percentage (%) [2, 17] [%]	Remaining Percentage (%) [2, 18] [%]	further results
CCN(CC)CCc1c[nH]c2ccc(SC)cc12 [Compound I-12, N,N-Diethyl-2-(5-(methylthio)-1H-indol-3-yl)ethan-1-amine]	–	–	–	–	–	–	–	–	–	–	–	–	–	–	–	–	–	–	–	–	Predicted hepatic CL ([1]; Human liver microsomes): 15.84 mL/min/kg; half-life at 2 μM ([1]; Human liver microsomes, 0.5 mg/mL microsomes, 1 mM NADPH, 37° C): 25.8 min; microsomal CLint at 2 μM ([1]; Human liver microsomes, 0.5 mg/mL microsomes, 1 mM NADPH): 53.8 µL/min/mg; CLint scaled at 2 μM ([1]; Human liver microsomes): 67.5 mL/min/kg; Predicted hepatic CL ([2]; Rat liver microsomes): 30.14 mL/min/kg; microsomal CLint at 2 μM ([2]; liver microsomes, Rat liver microsomes, 0.5 mg/mL microsomes, 1 mM NADPH): 37 µL/min/mg; half-life at 2 μM ([2]; Rat liver microsomes, 0.5 mg/mL microsomes, 1 mM NADPH, 37° C): 37.4 min; CLint scaled at 2 μM ([2]; Rat liver microsomes): 66.4 mL/min/kg; IC50 [3]: 451 nM; Ki [3]: 233 nM
COc1ccc2[nH]cc(CCN3CC[C@@H](OC(F)F)C3)c2c1 [(R) I-67, (R)-3-(2-(3-(Difluoromethoxy)pyrrolidin-1-yl)ethyl)-5-methoxy-1H-indole]	15.34	29.3	47.3	100.00	47.22	24.23	100.00	79.21	71.91	59.3	10.5	236	132	44.73	100.00	15.35	1.93	100.00	91.21	80.30	–
COc1ccc2[nH]cc(CCN3CC[C@H](OC(F)F)C3)c2c1 [(S) I-67, (S)-3-(2-(3-(Difluoromethoxy)pyrrolidin-1-yl)ethyl)-5-methoxy-1H-indole]	13.30	46.8	29.6	100.00	66.20	41.10	100.00	98.68	100.00	37.2	< 4.51	> 550	> 307	>50.17	100.00	0.00	0.00	100.00	99.06	96.86	–
CN(C)CCc1c[nH]c2ccc(OCCOC(F)F)cc12 [Compound I-128, 2-(5-(2-(Difluoromethoxy)ethoxy)-1H-indol-3-yl)-N,N-dimethylethan-1-amine]	16.28	22.8	60.8	100.00	41.35	16.15	100.00	39.57	16.12	76.2	7.43	334	187	47.38	100.00	6.09	0.56	100.00	70.92	52.18	–
COc1ccc2[nH]cc(CCN3CC[C@@H](OC)C3)c2c1 [(R) I-66, (R)-5-methoxy-3-(2-(3-methoxypyrrolidin-1-yl)ethyl)-1H-indole]	4.37	314	4.42	100.00	98.13	87.59	100.00	100.00	98.15	5.54	17.8	139	77.7	39.53	100.00	22.22	9.71	100.00	102.61	100.00	–
CN(CCOC(F)F)CCc1c[nH]c2ccccc12 [Compound I-130, N-(2-(1H-Indol-3-yl)ethyl)-2-(difluoromethoxy)-N-methylethan-1-amine]	18.58	9.6	144	100.00	11.46	0.75	100.00	99.47	94.15	181	< 4.51	> 550	> 307	>50.17	100.00	0.00	0.00	100.00	105.21	103.65	–
